This is an account of results in patent US20230115611A1, “TREATMENT OF PAIN AND VASOCONSTRICTION” (Aisa Pharma, Inc., priority 2020, published 2023).

For orientation: Cmax means the peak of the concentration-time curve.

SMILES strings stand for the structures.

One data set concerns the target T1, human Nav 1.7 (Homo sapiens, UniProt Q15858).
T1 construct: expressed in transfected cells
Nature of the data set: Nav 1.7 sodium channel inhibition, automated patch clamp (QPATCH II), two pulse voltage protocol. In kind it is cell-based. The settings on record: for Mean % inhibition-closed state: closed state (P1) of Nav 1.7; for Mean % inhibition-closed state / Mean % inhibition-inactivated state: CHO cells, compound at/around Cmax concentration as in Table 4; for Mean % inhibition-inactivated state: inactivated state (P2) of Nav 1.7; for ranking of the compounds in terms of efficacy: Nav 1.7 inhibition at Cmax. The method, then: Chinese Hamster Ovary (CHO) cells stably expressing human Nav 1.7 were cultured according to the manufacturer's standard operating procedure (SOP) and enzymatically lifted into solution following Sophion's standard SOP.
Voltage protocol 1 (VP1): A voltage protocol designed to generate a current voltage relationship and to estimate the half inactivation potential (V1/2) was used. The first voltage protocol was used as quality control and the latter was used later in the experiment (see below).
Voltage protocol 2 (VP2): Two pulse voltage protocol. FIG. 2 depicts a two pulse voltage protocol. The line marked with an asterisk indicates the voltage that was applied to the cell. In the beginning, all channels were in the closed state (V=−120 mV). A depolarization step to V=10 mV (P1) activated all channels and produced the largest possible current. Next, cells were kept at the V1/2 value for 1 s. […] A second stimulation to V=−10 mV activated all channels that were in the closed state (50%). Compound effects were assessed at both P1 and P2. State dependent compounds will show a different degree of inhibition at the two different pulses. This protocol was repeated every 10 s to monitor compound effects on the channel.

The conditions of data set [1]: oral dose 10 mg; reference value; cited from earlier work.

T1 sequence (Q15858 whole entry): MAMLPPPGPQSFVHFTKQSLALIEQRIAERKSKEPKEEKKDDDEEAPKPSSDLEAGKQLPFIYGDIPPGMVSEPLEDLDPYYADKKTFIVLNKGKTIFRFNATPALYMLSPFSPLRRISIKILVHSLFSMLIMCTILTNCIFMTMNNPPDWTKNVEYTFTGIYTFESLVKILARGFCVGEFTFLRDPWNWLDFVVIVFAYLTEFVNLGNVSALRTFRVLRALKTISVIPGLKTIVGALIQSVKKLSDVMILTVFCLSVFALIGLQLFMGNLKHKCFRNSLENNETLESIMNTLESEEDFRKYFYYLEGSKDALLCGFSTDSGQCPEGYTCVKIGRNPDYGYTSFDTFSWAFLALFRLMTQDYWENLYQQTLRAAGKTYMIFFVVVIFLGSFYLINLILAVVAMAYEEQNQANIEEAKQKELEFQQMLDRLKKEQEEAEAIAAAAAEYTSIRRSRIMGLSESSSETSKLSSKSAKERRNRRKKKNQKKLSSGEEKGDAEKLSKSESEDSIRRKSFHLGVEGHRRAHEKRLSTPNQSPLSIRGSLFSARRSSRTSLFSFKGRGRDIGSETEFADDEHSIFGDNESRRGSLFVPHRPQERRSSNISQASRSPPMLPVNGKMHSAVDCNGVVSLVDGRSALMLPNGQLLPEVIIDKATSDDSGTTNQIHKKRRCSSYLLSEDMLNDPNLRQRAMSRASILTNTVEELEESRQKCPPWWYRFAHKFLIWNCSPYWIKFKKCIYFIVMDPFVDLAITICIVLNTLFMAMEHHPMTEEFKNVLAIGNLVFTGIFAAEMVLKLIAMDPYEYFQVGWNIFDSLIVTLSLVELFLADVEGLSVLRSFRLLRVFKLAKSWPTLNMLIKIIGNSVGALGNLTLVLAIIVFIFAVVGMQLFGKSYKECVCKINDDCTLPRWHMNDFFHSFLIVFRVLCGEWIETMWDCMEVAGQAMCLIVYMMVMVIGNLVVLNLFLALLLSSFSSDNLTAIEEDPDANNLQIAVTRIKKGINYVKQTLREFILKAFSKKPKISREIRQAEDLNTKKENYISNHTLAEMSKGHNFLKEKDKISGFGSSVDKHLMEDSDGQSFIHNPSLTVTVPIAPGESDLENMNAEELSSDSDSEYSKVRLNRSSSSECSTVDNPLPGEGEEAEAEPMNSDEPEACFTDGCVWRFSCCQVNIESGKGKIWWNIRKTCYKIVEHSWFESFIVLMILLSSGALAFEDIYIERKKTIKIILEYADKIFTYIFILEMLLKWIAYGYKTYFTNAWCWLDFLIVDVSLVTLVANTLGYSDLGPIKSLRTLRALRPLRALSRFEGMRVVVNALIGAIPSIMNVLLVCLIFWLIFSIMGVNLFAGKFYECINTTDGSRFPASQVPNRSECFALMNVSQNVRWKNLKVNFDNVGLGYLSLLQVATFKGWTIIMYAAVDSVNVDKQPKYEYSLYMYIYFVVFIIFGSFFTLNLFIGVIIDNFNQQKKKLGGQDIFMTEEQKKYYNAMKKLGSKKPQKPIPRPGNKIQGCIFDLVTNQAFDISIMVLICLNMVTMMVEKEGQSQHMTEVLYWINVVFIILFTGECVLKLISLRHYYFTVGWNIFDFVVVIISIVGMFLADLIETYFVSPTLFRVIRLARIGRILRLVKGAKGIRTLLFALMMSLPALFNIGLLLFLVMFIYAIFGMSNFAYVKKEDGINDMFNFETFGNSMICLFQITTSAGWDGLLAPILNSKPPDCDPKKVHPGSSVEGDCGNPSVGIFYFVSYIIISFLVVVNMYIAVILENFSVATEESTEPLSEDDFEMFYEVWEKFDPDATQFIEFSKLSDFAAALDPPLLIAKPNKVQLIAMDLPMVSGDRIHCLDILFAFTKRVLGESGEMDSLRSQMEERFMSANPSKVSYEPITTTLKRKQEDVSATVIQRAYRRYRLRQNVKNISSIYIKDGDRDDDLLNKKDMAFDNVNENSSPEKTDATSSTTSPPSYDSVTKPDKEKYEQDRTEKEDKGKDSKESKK

Regarding `C[S+](C)[O-]` [DMSO], on human Nav 1.7, the “Mean % inhibition-closed state” value is recorded as −2.7% and the “Mean % inhibition-inactivated state” value is given as 38.7%.
On to `CCOC(=O)C1=C(COCCN)NC(C)=C(C(=O)OC)C1c1ccccc1Cl` (centres unmarked) [amlodipine], for which, at human Nav 1.7, the “Mean % inhibition-closed state” value is reported as −7.4% and the “Mean % inhibition-inactivated state” value was determined as 7.8%.
The matching figures for `CCCCN1CCCCC1C(=O)Nc1c(C)cccc1C` (centres unmarked) [bupivacaine]: 2.5% and 20%.
Take `COCCOC(=O)C1=C(C)NC(C)=C(C(=O)OC/C=C/c2ccccc2)C1c1cccc([N+](=O)[O-])c1` (centres unmarked) [cilnidipine]: at human Nav 1.7, the “activity at the sodium channel subunit Nav 1.7” value is listed as “clinically meaningful activity”, the “ranking of the compounds in terms of efficacy” value was “gabapentin<amlodipine<cilnidipine nifedipine”, the “Mean % inhibition-closed state” value is given as −6.7% and the “Mean % inhibition-inactivated state” value was determined as 18.5%. In addition, on human Nav 1.7 (cilnidipine at 20 mg dose), the “activity at Nav 1.7 compared with bupivacaine” value was “appears to be greater than a sodium channel blocker and local anesthetic, bupivacaine”; the “activity at Nav 1.7 compared with gabapentin” value is reported as “greater than gabapentin”. In addition, the “activity at Nav 1.7 relative to amlodipine” value at human Nav 1.7 (comparable clinical doses (amlodipine 5 mg to cilnidipine 10 mg and amlodipine 10 mg to cilnidipine 20 mg)) was “about 5 ×”. For the same compound, on human Nav 1.7 (plasma concentrations achieved with 10 mg cilnidipine versus clinically comparable 5 mg amlodipine), the “higher relative inhibition of Nav 1.7 than amlodipine” value amounted to 9.5%. The highest concentration (Cmax) in data set [1] was 5.9 ± 1.2 ng/mL.
With `NCC1(CC(=O)O)CCCCC1` [gabapentin], at human Nav 1.7, the “ranking of the compounds in terms of efficacy” value was “gabapentin<amlodipine<cilnidipine nifedipine”, the “Mean % inhibition-closed state” value is given as −5.2% and the “Mean % inhibition-inactivated state” value was 6.3%.
With `CCN(CC)CC(=O)Nc1c(C)cccc1C` [lidocaine], on human Nav 1.7, the “Mean % inhibition-closed state” value is recorded as 40.9% and the “Mean % inhibition-inactivated state” value was 89.0%.
